In the supplement of paper PMC10307832:

What was measured:
Test in all cases: relative viability (nuclei count vs DMSO), 5 days (fraction); higher = more cells survive
[1] = compound: C1=CC=C2C(=C1)N=C(S2)C(C#N)C3=NC(=NC=C3)NCCC4=CN=CC=C4 + CCNC(=O)c1noc(-c2cc(C(C)C)c(O)cc2O)c1-c1ccc(CN2CCOCC2)cc1 [Luminespib] (partner 0.01 µM)
Summary of the method: (§1)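 Lung cancer cell lines in 1536-well plates got either a single drug or a fixed anchor-drug dose together with five library-drug doses (not always all listed) in √10 steps, by pin tool, on the day after seeding. Nuclei were counted after 5 days, and relative viability is the treated-to-vehicle ratio of nuclei counts. Values are medians of duplicate plates.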

[2] = compound: C1=CC=C2C(=C1)N=C(S2)C(C#N)C3=NC(=NC=C3)NCCC4=CN=CC=C4 + N=C(N)NC(=N)NCCc1ccccc1 [Phenformin] (partner 250 µM)
Summary of the method: as §1

CUDC-101 + Pictilisib = compound: C#Cc1cccc(Nc2ncnc3cc(OC)c(OCCCCCCC(=O)NO)cc23)c1 [CUDC-101] + CS(=O)(=O)N1CCN(Cc2cc3nc(-c4cccc5[nH]ncc45)nc(N4CCOCC4)c3s2)CC1 [Pictilisib] (partner 1 µM)
Summary of the method: as §1

[3] = compound: C1=CC=C2C(=C1)N=C(S2)C(C#N)C3=NC(=NC=C3)NCCC4=CN=CC=C4 + Nc1ncn([C@H]2C[C@H](O)[C@@H](CO)O2)c(=O)n1 [Decitabine] (partner 2 µM)
Summary of the method: as §1

Row | Cell Line | relative viability ([1]; first compound 0.005 µM) | relative viability ([1]; first compound 0.01581 µM) | relative viability ([1]; first compound 0.05 µM) | relative viability ([1]; first compound 0.1581 µM) | relative viability ([1]; first compound 0.5 µM) | relative viability ([2]; first compound 0.005 µM) | relative viability ([2]; first compound 0.01581 µM) | relative viability ([2]; first compound 0.05 µM) | relative viability ([2]; first compound 0.1581 µM) | relative viability ([2]; first compound 0.5 µM) | relative viability (CUDC-101 + Pictilisib; first compound 0.01 µM) | relative viability (CUDC-101 + Pictilisib; first compound 0.03162 µM) | relative viability (CUDC-101 + Pictilisib; first compound 0.1 µM) | relative viability (CUDC-101 + Pictilisib; first compound 0.3162 µM) | relative viability (CUDC-101 + Pictilisib; first compound 1 µM) | relative viability ([3]; first compound 0.005 µM) | relative viability ([3]; first compound 0.01581 µM) | relative viability ([3]; first compound 0.05 µM) | relative viability ([3]; first compound 0.1581 µM) | relative viability ([3]; first compound 0.5 µM)
1 | RERF-LC-KJ | 0.935 | 0.982 | 1.4 | 1.18 | 1.06 | 0.396 | 0.447 | 0.403 | 0.442 | 0.377 | 0.465 | 0.518 | 0.511 | 0.485 | 0.376 | 0.621 | 0.773 | 0.682 | 0.785 | 0.606
2 | NCI-H3122 | 0.0736 | 0.0973 | 0.553 | 0.0763 | 0.0863 | 0.393 | 0.37 | 0.364 | 0.44 | 0.35 | 0.539 | 0.57 | 0.692 | 0.73 | 0.54 | 0.333 | 0.394 | 0.492 | 0.577 | 0.441
3 | NCI-H322M | 0.646 | 0.829 | 0.88 | 0.933 | 0.932 | 0.63 | 0.688 | 0.708 | 0.81 | 0.694 | 0.522 | 0.546 | 0.439 | 0.417 | 0.353 | 0.579 | 0.773 | 0.775 | 0.711 | 0.736
4 | NCI-H647 | 0.208 | 0.262 | 0.169 | 0.235 | 0.286 | 0.265 | 0.442 | 0.584 | 0.775 | 0.292 | 0.446 | 0.512 | 0.576 | 0.491 | 0.361 | 0.356 | 0.442 | 0.33 | 0.353 | 0.284
5 | EMC-BAC-2 | 0.766 | 1.32 | 1.11 | 1.28 | 1.03 | 0.413 | 0.517 | 0.516 | 0.657 | 0.368 | 0.531 | 0.61 | 0.606 | 0.557 | 0.351 | 0.872 | 0.984 | 0.916 | 1.04 | 0.91
6 | PC-14 | 0.197 | – | 0.117 | 0.119 | 0.155 | 0.381 | 0.401 | 0.542 | 0.75 | 0.45 | 0.936 | 0.562 | 0.215 | 0.173 | 0.0519 | 0.207 | 0.246 | 0.178 | 0.203 | 0.179
7 | 201T | 1.06 | 1.06 | 1.09 | 1.07 | 1.07 | 0.415 | 0.425 | 0.423 | 0.504 | 0.346 | 0.702 | 0.653 | 0.636 | 0.626 | 0.59 | 0.772 | 0.91 | 0.868 | 0.833 | 0.911
8 | LXF-289 | 0.544 | 0.74 | 0.661 | 0.875 | 0.677 | 0.447 | 0.563 | 0.458 | 0.592 | 0.496 | 0.758 | 0.806 | 0.806 | 0.728 | 0.51 | 0.345 | 0.419 | 0.4 | 0.405 | 0.336
